Measurements from ChEMBL document CHEMBL2440076, “New triarylpyrazoles as broad-spectrum anticancer agents: design, synthesis, and biological evaluation” (Eur J Med Chem, 2013).

Legend:
[1] = tested on: MCF7; test: Growth inhibition of human MCF7 cells assessed as cell growth at 10 uM after 48 hrs by sulforhodamine B assay; assay type: functional; conditions: MCF7, 48 h, read-out: Activity
[2] = tested on: UO-31; test: Growth inhibition of human UO31 cells assessed as cell growth at 10 uM after 48 hrs by sulforhodamine B assay; assay type: functional; conditions: UO-31, 48 h, read-out: Activity
[3] = tested on: SW-620; test: Growth inhibition of human SW620 cells after 48 hrs by sulforhodamine B assay; assay type: functional; conditions: SW-620, 48 h
[4] = tested on: HCT-15; test: Growth inhibition of human HCT15 cells after 48 hrs by sulforhodamine B assay; assay type: functional; conditions: HCT-15, 48 h
[5] = Growth inhibition of human HCC2998 cells after 48 hrs by sulforhodamine B assay; assay type: functional; conditions: HCC 2998, 48 h
[6] = tested on: NCI-H460; test: Growth inhibition of human NCI-H460 cells after 48 hrs by sulforhodamine B assay; assay type: functional; conditions: NCI-H460, 48 h
[7] = tested on: HOP-92; test: Growth inhibition of human HOP92 cells after 48 hrs by sulforhodamine B assay; assay type: functional, cell-based; conditions: HOP-92, 48 h
[8] = tested on: A549; test: Growth inhibition of human A549/ATCC cells after 48 hrs by sulforhodamine B assay; assay type: functional; conditions: A549, 48 h
[9] = tested on: RPMI-8226; test: Growth inhibition of human RPMI8226 cells after 48 hrs by sulforhodamine B assay; assay type: functional, cell-based; conditions: RPMI-8226, 48 h
[10] = tested on: K562; test: Growth inhibition of human K562 cells after 48 hrs by sulforhodamine B assay; assay type: functional; conditions: K562, 48 h
[11] = tested on: ACHN; test: Growth inhibition of human ACHN cells assessed as cell growth at 10 uM after 48 hrs by sulforhodamine B assay; assay type: functional; conditions: read-out: Activity
[12] = tested on: SK-OV-3; test: Growth inhibition of human SKOV3 cells assessed as cell growth at 10 uM after 48 hrs by sulforhodamine B assay; assay type: functional; conditions: SK-OV-3, 48 h, read-out: Activity
[13] = Growth inhibition of human NCI-ADR-RES cells assessed as cell growth at 10 uM after 48 hrs by sulforhodamine B assay; assay type: functional; conditions: read-out: Activity
[14] = tested on: OVCAR-4; test: Growth inhibition of human OVCAR4 cells assessed as cell growth at 10 uM after 48 hrs by sulforhodamine B assay; assay type: functional; conditions: OVCAR-4, 48 h, read-out: Activity
[15] = tested on: OVCAR-3; test: Growth inhibition of human OVCAR3 cells assessed as cell growth at 10 uM after 48 hrs by sulforhodamine B assay; assay type: functional; conditions: OVCAR-3, 48 h, read-out: Activity
[16] = tested on: UACC-62; test: Growth inhibition of human UACC62 cells assessed as cell growth at 10 uM after 48 hrs by sulforhodamine B assay; assay type: functional; conditions: UACC-62, 48 h, read-out: Activity
[17] = tested on: IGROV-1; test: Growth inhibition of human IGROV1 cells assessed as cell growth at 10 uM after 48 hrs by sulforhodamine B assay; assay type: functional; conditions: IGROV-1, 48 h, read-out: Activity
[18] = tested on: SK-MEL-28; test: Growth inhibition of human SK-MEL-28 cells assessed as cell growth at 10 uM after 48 hrs by sulforhodamine B assay; assay type: functional; conditions: SK-MEL-28, 48 h, read-out: Activity
[19] = tested on: SNB-19; test: Growth inhibition of human SNB19 cells assessed as cell growth at 10 uM after 48 hrs by sulforhodamine B assay; assay type: functional; conditions: SNB-19, 48 h, read-out: Activity
[20] = tested on: SF-539; test: Growth inhibition of human SF539 cells assessed as cell growth at 10 uM after 48 hrs by sulforhodamine B assay; assay type: functional; conditions: SF-539, 48 h, read-out: Activity
[21] = tested on: SW-620; test: Growth inhibition of human SW620 cells assessed as cell growth at 10 uM after 48 hrs by sulforhodamine B assay; assay type: functional; conditions: SW-620, 48 h, read-out: Activity
[22] = tested on: NCI-H522; test: Growth inhibition of human NCI-H522 cells assessed as cell growth at 10 uM after 48 hrs by sulforhodamine B assay; assay type: functional; conditions: NCI-H522, 48 h, read-out: Activity
[23] = tested on: HOP-92; test: Growth inhibition of human HOP92 cells assessed as cell growth at 10 uM after 48 hrs by sulforhodamine B assay; assay type: functional; conditions: HOP-92, 48 h, read-out: Activity
[24] = tested on: T47D; test: Growth inhibition of human T47D cells after 48 hrs by sulforhodamine B assay; assay type: functional
[25] = Growth inhibition of human Hs 578T cells after 48 hrs by sulforhodamine B assay; assay type: functional
[26] = tested on: MDA-MB-231; test: Growth inhibition of human MDA-MB-231 cells after 48 hrs by sulforhodamine B assay; assay type: functional; conditions: MDA-MB-231, 48 h
[27] = tested on: TK-10; test: Growth inhibition of human TK10 cells after 48 hrs by sulforhodamine B assay; assay type: functional; conditions: TK-10, 48 h
[28] = tested on: CAKI-1; test: Growth inhibition of human CAKI-1 cells after 48 hrs by sulforhodamine B assay; assay type: functional; conditions: CAKI-1, 48 h
[29] = tested on: A498; test: Growth inhibition of human A498 cells after 48 hrs by sulforhodamine B assay; assay type: functional, cell-based; conditions: A498, 48 h
[30] = Growth inhibition of human NCI-ADR-RES cells after 48 hrs by sulforhodamine B assay; assay type: functional
[31] = tested on: OVCAR-3; test: Growth inhibition of human OVCAR3 cells after 48 hrs by sulforhodamine B assay; assay type: functional, cell-based; conditions: OVCAR-3, 48 h
[32] = tested on: Malme-3M; test: Growth inhibition of human MALME-3M cells after 48 hrs by sulforhodamine B assay; assay type: functional
[33] = tested on: SNB-75; test: Growth inhibition of human SNB75 cells after 48 hrs by sulforhodamine B assay; assay type: functional; conditions: SNB-75, 48 h
[34] = tested on: HL-60(TB); test: Growth inhibition of human HL-60(TB) cells assessed as cell growth at 10 uM after 48 hrs by sulforhodamine B assay; assay type: functional; conditions: HL-60, 48 h, read-out: Activity
[35] = read-out: LC50 (the source's name)

With `O=C(Nc1cccc(-n2cc(-c3ccncc3)c(-c3ccc(Cl)c(O)c3)n2)c1)Nc1cccc(C(F)(F)F)c1` the growth at 10 µM [1] was 10.3%, the growth at 10 µM [2] was 24.8% and the GI50 [3] was 3.83 µM. The TGI [3] was > 32.5 µM, the CC50 [3, 35] was > 32.5 µM and the GI50 [4] was 1.51 µM. The LC50 [4] was > 32.5 µM, the TGI [4] was > 32.5 µM and the GI50 [5] was 7.26 µM. For the same compound, the TGI [5] was > 32.5 µM, the CC50 [5, 35] was > 32.5 µM and the GI50 [6] was 1.18 µM. The LC50 [6] was > 32.5 µM, the TGI [6] was 29 µM and the GI50 [7] was 0.509 µM. The IC50 [7] was 0.51 µM, the LC50 [7] was > 32.5 µM and the TGI [7] was 2.23 µM. For the same compound, the GI50 [8] was 1.37 µM, the LC50 (concentration killing 50% of starting cells) [8] was > 32.5 µM and the TGI [8] was > 32.5 µM. For the same compound, the GI50 [9] was 1.34 µM, the IC50 [9] was 1.34 µM and the TGI [9] was > 32.5 µM. The CC50 [9, 35] was > 32.5 µM, the GI50 [10] was 1.44 µM and the TGI [10] was > 32.5 µM. The CC50 [10, 35] was > 32.5 µM, the growth at 10 µM [11] was 11.2% and the growth at 10 µM [12] was 21.2%. It also gave a growth at 10 µM [13] of 24.9%, a growth at 10 µM [14] of 41.5% and a growth at 10 µM [15] of 0.81%. The growth at 10 µM [16] was 10.4%, the growth at 10 µM [17] was 28.6% and the growth at 10 µM [18] was 29.4%. It also gave a growth at 10 µM [19] of 32.5%, a growth at 10 µM [20] of 38.5% and a growth at 10 µM [21] of 28.5%. For the same compound, the growth at 10 µM [22] was -10.8%, the growth at 10 µM [23] was -17.7% and the GI50 [24] was 2.47 µM. For the same compound, the TGI [24] was > 32.5 µM, the CC50 [24, 35] was > 32.5 µM and the GI50 [25] was 3.31 µM. For the same compound, the TGI [25] was > 32.5 µM, the CC50 [25, 35] was > 32.5 µM and the GI50 [26] was 3.59 µM. For the same compound, the LC50 [26] was > 32.5 µM, the TGI [26] was 26.8 µM and the GI50 [27] was 2.12 µM. For the same compound, the TGI [27] was > 32.5 µM, the CC50 [27, 35] was > 32.5 µM and the GI50 [28] was 1.75 µM. The TGI [28] was > 32.5 µM, the CC50 [28, 35] was > 32.5 µM and the GI50 [29] was 2.24 µM. The IC50 [29] was 2.24 µM, the TGI [29] was > 32.5 µM and the CC50 [29, 35] was > 32.5 µM. For the same compound, the GI50 [30] was 2.14 µM, the TGI [30] was > 32.5 µM and the CC50 [30, 35] was > 32.5 µM. The GI50 [31] was 1.06 µM, the IC50 [31] was 1.06 µM and the TGI [31] was 6.13 µM. The CC50 [31, 35] was > 32.5 µM, the GI50 [32] was 1.81 µM and the LC50 (concentration killing 50% of starting cells) [32] was > 32.5 µM. For the same compound, the TGI [32] was 20.1 µM, the GI50 [33] was 3.65 µM and the LC50 (lethal concentration, 50% net cell kill) [33] was > 32.5 µM. The TGI [33] was > 32.5 µM and the growth at 10 µM [34] was 12.5%.
